Measurements as given in ChEMBL document CHEMBL5465560, “Selectivity Literature for EUbOPEN Chemogenomic Library” (2024).
pIC50: −log10 of the molar value. Values belong to the molecule of their own block, whether it stands above or below them.

Key:
[1] = biological target: T1, Serine/threonine-protein kinase Sgk1 (Homo sapiens) (UniProt O00141); assay: Selectivity interaction (Millipore kinase profiler) EUB0000124b SGK1; conditions: at 10 µM
T1 sequence (whole entry): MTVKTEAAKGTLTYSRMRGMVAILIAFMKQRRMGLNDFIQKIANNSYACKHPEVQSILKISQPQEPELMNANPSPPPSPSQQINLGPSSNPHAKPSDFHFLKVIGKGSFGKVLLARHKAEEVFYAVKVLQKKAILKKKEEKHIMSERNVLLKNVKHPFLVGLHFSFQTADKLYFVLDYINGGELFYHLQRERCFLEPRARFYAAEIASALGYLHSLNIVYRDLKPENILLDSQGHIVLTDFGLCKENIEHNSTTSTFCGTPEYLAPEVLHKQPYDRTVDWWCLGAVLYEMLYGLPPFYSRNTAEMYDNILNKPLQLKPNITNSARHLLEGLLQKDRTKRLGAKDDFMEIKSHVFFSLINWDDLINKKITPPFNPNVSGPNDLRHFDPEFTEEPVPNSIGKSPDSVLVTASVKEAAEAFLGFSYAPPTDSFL

[2] = biological target: T2, Serine/threonine-protein kinase STK11 (Homo sapiens) (UniProt Q15831); assay: Selectivity interaction (KinomeScan (DiscoverX)) EUB0000618a STK11; conditions: at 10 µM
T2 sequence (whole entry): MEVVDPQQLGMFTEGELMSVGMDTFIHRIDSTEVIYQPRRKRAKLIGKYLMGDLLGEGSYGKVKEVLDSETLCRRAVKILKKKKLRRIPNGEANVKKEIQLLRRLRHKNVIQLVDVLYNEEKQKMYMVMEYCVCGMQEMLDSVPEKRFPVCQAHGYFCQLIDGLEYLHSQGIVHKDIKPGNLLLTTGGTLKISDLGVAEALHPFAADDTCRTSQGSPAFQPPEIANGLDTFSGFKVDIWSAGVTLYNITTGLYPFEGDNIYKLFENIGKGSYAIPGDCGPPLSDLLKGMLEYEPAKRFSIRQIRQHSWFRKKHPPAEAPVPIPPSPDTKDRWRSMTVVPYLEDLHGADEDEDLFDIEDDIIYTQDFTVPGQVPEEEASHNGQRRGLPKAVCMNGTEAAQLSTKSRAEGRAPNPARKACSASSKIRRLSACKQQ

[3] = biological target: T3, Serine/threonine-protein kinase ULK3 (Homo sapiens) (UniProt Q6PHR2); assay: Selectivity interaction (KinomeScan (DiscoverX)) EUB0000595a ULK3; conditions: at 10 µM
T3 sequence (whole entry): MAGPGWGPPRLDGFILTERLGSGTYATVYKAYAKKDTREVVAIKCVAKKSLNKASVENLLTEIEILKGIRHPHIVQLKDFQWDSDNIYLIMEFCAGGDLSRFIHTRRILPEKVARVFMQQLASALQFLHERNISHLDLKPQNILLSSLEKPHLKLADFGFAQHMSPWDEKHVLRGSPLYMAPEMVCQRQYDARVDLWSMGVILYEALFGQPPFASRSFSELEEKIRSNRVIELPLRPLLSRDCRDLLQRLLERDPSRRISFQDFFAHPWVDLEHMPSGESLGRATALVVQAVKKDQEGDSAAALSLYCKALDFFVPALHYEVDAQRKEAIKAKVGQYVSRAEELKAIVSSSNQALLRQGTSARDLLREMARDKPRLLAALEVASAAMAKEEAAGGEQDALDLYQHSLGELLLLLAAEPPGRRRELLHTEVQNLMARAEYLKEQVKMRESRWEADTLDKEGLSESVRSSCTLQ

[4] = biological target: Mitogen-activated protein kinase kinase kinase kinase 1 (Homo sapiens) (UniProt Q92918); assay: Selectivity interaction (Kinase panel (KiNativ target engagement assay in Jurkat cells)) EUB0001635a MAP4K1; type: cell-based; conditions: Selectivity number of off-targets 0.0, Selectivity number of targets 233.0, Source Knowledge https://www.sciencedirect.com/science/article/pii/S2451945619300674?via%3Dihub, at 1 µM
Mitogen-activated protein kinase kinase kinase kinase 1 (Homo sapiens), sequence (Q92918 whole entry, looked up): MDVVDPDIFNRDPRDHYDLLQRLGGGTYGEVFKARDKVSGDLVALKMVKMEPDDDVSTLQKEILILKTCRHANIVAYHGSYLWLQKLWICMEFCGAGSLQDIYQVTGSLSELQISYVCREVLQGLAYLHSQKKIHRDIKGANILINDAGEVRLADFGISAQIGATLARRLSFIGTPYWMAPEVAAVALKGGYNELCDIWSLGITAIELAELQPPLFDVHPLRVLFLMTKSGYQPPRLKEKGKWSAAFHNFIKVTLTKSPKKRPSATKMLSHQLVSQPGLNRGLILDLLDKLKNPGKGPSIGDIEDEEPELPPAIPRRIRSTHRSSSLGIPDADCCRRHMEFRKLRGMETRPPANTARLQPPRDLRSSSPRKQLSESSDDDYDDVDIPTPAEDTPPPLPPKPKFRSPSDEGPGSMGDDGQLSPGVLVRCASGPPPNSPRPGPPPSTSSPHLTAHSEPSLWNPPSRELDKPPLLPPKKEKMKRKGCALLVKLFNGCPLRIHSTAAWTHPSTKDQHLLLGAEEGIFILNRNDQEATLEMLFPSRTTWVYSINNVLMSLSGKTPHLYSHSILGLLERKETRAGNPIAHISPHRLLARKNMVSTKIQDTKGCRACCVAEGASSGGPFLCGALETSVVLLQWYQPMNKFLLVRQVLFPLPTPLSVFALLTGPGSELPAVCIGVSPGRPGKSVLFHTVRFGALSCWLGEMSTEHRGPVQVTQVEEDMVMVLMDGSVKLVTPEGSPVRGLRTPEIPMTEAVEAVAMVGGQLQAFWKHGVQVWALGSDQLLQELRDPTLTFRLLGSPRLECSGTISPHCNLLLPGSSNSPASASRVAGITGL

[5] = biological target: Myosin-IIIa (Homo sapiens) (UniProt Q8NEV4); conditions: at 10 µM
[6] = biological target: Mitogen-activated protein kinase 3 (Homo sapiens, UniProt P27361); assay: Selectivity interaction (Kinase panel (Invitrogen)) EUB0000639a MAPK3; conditions: at 200 nM
Mitogen-activated protein kinase 3, sequence (P27361 whole entry): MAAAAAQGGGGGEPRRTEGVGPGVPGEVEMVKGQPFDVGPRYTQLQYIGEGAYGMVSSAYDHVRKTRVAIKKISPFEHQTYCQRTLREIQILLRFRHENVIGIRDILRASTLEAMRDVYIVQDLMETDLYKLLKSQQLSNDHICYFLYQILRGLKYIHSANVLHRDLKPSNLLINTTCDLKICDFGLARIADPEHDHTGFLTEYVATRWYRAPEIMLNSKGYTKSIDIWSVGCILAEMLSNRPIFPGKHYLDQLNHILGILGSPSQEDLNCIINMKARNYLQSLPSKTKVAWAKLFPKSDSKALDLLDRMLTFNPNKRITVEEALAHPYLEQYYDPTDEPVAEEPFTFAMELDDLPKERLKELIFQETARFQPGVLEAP

[7] = biological target: Tyrosine-protein kinase ABL2 (Homo sapiens, UniProt P42684); assay: Selectivity interaction (ActivX KiNativ screen (kinase selectivity in THP-1 cell lysates)) EUB0000639a ABL2; type: subcellular; conditions: lysate, at 1 µM
Tyrosine-protein kinase ABL2, sequence (P42684 whole entry): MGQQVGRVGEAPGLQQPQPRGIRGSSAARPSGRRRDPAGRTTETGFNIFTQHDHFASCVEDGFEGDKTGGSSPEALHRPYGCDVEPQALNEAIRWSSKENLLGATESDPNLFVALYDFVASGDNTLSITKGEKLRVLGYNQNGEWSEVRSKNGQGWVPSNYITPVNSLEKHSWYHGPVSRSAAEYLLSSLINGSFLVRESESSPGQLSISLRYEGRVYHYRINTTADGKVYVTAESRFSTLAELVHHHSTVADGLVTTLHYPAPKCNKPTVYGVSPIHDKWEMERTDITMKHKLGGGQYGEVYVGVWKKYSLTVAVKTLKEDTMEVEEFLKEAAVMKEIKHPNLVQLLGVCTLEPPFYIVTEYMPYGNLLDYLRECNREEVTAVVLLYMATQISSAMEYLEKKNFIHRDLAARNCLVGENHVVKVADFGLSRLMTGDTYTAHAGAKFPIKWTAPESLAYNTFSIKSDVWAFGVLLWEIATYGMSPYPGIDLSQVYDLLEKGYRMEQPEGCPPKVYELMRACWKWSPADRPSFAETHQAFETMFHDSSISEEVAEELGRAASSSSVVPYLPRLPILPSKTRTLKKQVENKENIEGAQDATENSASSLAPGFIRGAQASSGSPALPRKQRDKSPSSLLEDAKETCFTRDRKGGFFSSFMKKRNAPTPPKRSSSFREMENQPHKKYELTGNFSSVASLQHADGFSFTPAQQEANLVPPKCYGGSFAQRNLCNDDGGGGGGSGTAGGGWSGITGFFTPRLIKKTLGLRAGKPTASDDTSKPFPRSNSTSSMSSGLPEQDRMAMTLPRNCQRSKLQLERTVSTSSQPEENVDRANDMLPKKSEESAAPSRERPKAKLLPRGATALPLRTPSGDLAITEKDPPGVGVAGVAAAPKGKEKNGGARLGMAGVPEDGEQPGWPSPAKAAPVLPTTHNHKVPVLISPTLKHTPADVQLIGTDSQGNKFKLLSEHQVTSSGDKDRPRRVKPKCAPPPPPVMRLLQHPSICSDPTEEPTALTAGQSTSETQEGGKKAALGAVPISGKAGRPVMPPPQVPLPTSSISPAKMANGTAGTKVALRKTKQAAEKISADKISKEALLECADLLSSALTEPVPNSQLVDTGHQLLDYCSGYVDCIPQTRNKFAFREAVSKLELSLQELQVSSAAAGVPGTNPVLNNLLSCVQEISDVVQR

[8] = biological target: Cyclin-dependent kinase 13 (Homo sapiens, UniProt Q14004); assay: Selectivity interaction (ActivX KiNativ screen (kinase selectivity in THP-1 cell lysates)) EUB0000639a CDK13; type: subcellular; conditions: lysate
Cyclin-dependent kinase 13, sequence (Q14004 whole entry, looked up): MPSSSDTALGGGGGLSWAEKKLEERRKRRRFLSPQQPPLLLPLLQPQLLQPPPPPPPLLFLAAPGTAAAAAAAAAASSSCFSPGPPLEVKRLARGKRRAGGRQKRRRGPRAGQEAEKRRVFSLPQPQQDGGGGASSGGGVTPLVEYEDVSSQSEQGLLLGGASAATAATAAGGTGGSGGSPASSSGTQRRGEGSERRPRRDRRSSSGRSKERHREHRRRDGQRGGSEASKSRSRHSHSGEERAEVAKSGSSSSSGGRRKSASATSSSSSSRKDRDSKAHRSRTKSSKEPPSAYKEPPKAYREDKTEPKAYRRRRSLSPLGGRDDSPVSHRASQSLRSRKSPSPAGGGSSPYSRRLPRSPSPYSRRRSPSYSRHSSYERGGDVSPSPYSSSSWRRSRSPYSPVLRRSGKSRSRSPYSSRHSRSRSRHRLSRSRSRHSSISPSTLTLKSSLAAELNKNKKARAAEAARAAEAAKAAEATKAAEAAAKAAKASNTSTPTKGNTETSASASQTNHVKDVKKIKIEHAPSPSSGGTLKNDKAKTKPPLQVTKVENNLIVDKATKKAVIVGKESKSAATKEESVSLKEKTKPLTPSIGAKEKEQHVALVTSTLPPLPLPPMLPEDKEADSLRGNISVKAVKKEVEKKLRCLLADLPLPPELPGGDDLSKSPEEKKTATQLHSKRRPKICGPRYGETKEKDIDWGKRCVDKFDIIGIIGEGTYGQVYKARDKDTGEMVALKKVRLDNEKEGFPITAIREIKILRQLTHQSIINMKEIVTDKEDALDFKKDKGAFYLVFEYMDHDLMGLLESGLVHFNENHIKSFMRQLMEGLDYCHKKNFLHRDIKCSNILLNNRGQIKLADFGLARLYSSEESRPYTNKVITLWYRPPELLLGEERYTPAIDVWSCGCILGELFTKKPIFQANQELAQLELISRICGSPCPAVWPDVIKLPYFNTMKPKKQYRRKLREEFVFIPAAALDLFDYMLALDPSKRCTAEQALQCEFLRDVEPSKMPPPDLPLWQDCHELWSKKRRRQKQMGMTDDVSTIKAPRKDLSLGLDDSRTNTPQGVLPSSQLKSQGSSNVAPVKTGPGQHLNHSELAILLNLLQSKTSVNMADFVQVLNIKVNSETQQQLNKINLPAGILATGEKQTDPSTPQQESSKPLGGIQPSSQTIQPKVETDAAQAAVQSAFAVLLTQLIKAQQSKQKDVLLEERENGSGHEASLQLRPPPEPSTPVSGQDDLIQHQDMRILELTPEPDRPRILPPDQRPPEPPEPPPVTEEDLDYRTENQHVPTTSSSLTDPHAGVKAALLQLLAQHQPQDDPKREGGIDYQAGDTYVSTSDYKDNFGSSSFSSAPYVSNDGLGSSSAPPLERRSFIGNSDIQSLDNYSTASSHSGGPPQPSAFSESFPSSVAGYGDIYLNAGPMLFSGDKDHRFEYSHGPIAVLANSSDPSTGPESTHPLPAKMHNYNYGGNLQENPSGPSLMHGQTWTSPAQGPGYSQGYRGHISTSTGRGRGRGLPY

[9] = biological target: T4, Mitogen-activated protein kinase 13 (Homo sapiens) (UniProt O15264); assay: Selectivity interaction (ProQinase) EUB0000171b MAPK13
T4 sequence (whole entry): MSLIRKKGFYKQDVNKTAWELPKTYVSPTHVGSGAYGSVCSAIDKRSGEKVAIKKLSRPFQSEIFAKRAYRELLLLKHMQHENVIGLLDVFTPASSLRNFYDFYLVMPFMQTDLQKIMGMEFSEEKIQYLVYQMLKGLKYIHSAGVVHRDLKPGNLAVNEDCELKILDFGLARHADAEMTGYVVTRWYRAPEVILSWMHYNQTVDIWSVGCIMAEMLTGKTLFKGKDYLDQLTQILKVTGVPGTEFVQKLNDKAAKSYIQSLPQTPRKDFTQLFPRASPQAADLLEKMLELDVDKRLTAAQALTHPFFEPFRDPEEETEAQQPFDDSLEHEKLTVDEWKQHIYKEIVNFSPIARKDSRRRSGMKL

Mu-type opioid receptor = Mu-type opioid receptor (Homo sapiens, UniProt P35372); assay: Selectivity interaction (Opioid Mu GTPgS agonist assay ) EUB0000877a OPRM1
Mu-type opioid receptor, sequence (P35372 whole entry): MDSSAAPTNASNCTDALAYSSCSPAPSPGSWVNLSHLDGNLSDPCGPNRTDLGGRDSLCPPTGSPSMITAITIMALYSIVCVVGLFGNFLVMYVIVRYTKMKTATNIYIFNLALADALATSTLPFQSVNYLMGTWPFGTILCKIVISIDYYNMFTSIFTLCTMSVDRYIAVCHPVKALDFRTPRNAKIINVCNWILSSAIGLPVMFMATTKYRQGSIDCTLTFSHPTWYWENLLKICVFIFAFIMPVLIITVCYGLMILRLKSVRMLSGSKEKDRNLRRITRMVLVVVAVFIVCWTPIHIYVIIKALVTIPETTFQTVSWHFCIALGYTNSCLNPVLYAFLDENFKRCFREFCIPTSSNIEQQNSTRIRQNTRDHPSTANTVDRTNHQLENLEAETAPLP

[10] = biological target: Bone morphogenetic protein receptor type-1B (Homo sapiens, UniProt O00238); assay: Selectivity interaction (KinomeScan (DiscoverX)) EUB0000666a BMPR1B; conditions: at 10 µM
[11] = biological target: Receptor tyrosine-protein kinase erbB-2 (Homo sapiens, UniProt P04626); assay: Selectivity interaction (KinomeScan (DiscoverX)) EUB0000092b ERBB2; conditions: at 10 µM
[12] = biological target: Cyclin-dependent kinase 16 (Homo sapiens) (UniProt Q00536); assay: Selectivity interaction (KinomeScan (DiscoverX)) EUB0000092b CDK16; conditions: at 10 µM
[13] = biological target: Dual specificity mitogen-activated protein kinase kinase 2 (Homo sapiens) (UniProt P36507); assay: Selectivity interaction (KinomeScan (DiscoverX)) EUB0000695a MAP2K2; conditions: at 100 nM
Dual specificity mitogen-activated protein kinase kinase 2 (Homo sapiens), sequence (P36507 whole entry): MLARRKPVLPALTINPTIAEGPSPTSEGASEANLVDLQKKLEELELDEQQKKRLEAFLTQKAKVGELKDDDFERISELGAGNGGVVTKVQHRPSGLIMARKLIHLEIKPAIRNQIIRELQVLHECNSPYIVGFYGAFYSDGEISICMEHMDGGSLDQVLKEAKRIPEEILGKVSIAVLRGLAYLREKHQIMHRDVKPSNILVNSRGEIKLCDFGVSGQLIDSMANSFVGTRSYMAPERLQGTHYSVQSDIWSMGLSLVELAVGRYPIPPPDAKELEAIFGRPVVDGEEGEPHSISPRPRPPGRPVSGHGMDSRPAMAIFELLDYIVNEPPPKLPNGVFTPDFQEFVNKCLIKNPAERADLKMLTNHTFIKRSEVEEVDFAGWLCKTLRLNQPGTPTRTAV

% of control [1]: 114%
Structure (SMILES): CC(=O)Nc1cccc(-n2c(=O)n(C3CC3)c(=O)c3c(Nc4ccc(I)cc4F)n(C)c(=O)c(C)c32)c1

Structure (SMILES): O[C@H]1CC[C@H](Nc2ncc3nc(Nc4c(F)cc(F)cc4F)n([C@H]4CCOC4)c3n2)CC1
% of control [2]: 100%

Structure (SMILES): COCC(=O)NC/C=C/c1ccc2ncnc(Nc3ccc(Oc4ccc(C)nc4)c(C)c3)c2c1 [CP-724714]
% of control [3]: 68%

Structure (SMILES): C=CC(=O)Nc1ccc(C(=O)Nc2[nH]nc3c2CN(C(=O)N[C@H](CN(C)C)c2ccccc2)C3(C)C)cc1
% of engagement [4]: 4.1%

Structure (SMILES): Cc1cc([C@@H](C)Nc2ccccc2C(=O)O)c2nc(N3CCOCC3)cc(=O)n2c1 [AZD-6482]
% of control [5]: 97%

% of inhibition [6]: 4.09%
% of inhibition [7]: -13.2%
% of inhibition ([8]; at 0.01 µM): 3.8%
% of inhibition ([8]; at 0.04 µM): -10.7%
% of inhibition ([8]; at 0.2 µM): -1.5%
% of inhibition ([8]; at 1 µM): -2.6%
% of inhibition ([8]; at 5 µM): 5.1%
Structure (SMILES): CC[C@@H]1[C@H](F)C(=O)N[C@@H]1COc1nccc2cc(C(N)=O)c(OC)cc12 [ZIMLOVISERTIB]

% of control ([9]; at 1 µM): 91%
% of control ([9]; at 5 µM): 80%
Structure (SMILES): C=CC(=O)Nc1cccc(C(=O)Nc2ccc(Nc3cc(-c4[nH]c(SC)nc4C)ccn3)cc2)c1

pIC50 (Mu-type opioid receptor): < 4.52
Structure (SMILES): CCC(=O)N1CC[C@H](Nc2ncnc3c2CN(c2cnc(OC)c(C(F)(F)F)c2)CC3)C1 [LENIOLISIB]

Structure (SMILES): O=C(NOC[C@H](O)CO)c1ccc(F)c(F)c1Nc1ccc(I)cc1F
% of control [10]: 100%

Structure (SMILES): CCC(=O)N1CCN(c2ccc(-n3c(=O)ccc4cnc5ccc(-c6cnc7ccccc7c6)cc5c43)cc2C(F)(F)F)CC1
% of control [11]: 91%
% of control [12]: 91%

Structure (SMILES): Cc1cc(F)c(C(=O)Nc2cccc(-c3nncn3C(C)C)n2)cc1-n1cnc(C2CC2)c1
% of control [13]: 97%
